Test in all cases: inhibition of tumour cell growth, NCI panel, 48 h
Test [1] relates to HCC 2998.
Test [2] relates to MOLT-4.
Test [3] deals with K562.
For test [4], the system named is SF-539.
Test [5] relates to UACC-257.
Test [6] has as its system DLD-1.
For test [7], the system named is OVCAR-4.
For test [8], the system named is UACC-62.
Test [9] deals with IGROV-1.
For test [10], the system named is NCI-H226.
Test [11] concerns SNB-75.
Test [12] deals with HCT-116.
Test [13] relates to OVCAR-8.
The test system of test [14] is HCT-15.
Test [15] has as its system DMS-114.
In test [16] the test system is EKVX.
Test [17] has as its system MDA-MB-231.
For test [18], the system named is MDA-MB-435.
The test system of test [19] is T47D.
For test [20], the system named is MCF7.

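Following 48 hours of exposure in 96-well plates, responses at five concentrations were used to interpolate endpoints linearly. GI50 = concentration required for 50% inhibition of growth.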 Activity calls are given as the source filed them. Rule as the data show it: active = GI50 up to about 1.1 µM and inactive = higher.

`O=C1CCCC/C1=C/C=C/c1ccccc1`: the GI50 was > 100 µM (inactive) in [1]; 26.9 µM (inactive) in [2]; 32.4 µM (inactive) in test [3]; > 100 µM (inactive) in test [4]; 62.2 µM (inactive) in test [5]; 46.9 µM (inactive) in test [6]. Moreover, the GI50 in [7] is 63.8 µM (inactive); in test [8], 52.1 µM (inactive); in test [9], > 100 µM (inactive); in [10] it was > 100 µM (inactive); in test [11], 32.7 µM (inactive); in test [12], 43.7 µM (inactive). The GI50 in test [13] is 84.1 µM (inactive).

As for `O/N=C1/C(=C/c2ccc(Br)cc2)CCCC1C(NO)c1ccc(Br)cc1` (stereo not given), the GI50 in [14] is 17.3 µM; in test [2] it was 8.32 µM (inactive); in [3] it was > 100 µM (inactive); in test [15], 13.5 µM (inactive); in test [4] it was 22.4 µM (inactive); in test [16] it was > 10 µM (inactive). The GI50 in test [5] was 17.5 µM (inactive); in test [7], 10.4 µM (inactive); in test [8], 13.9 µM (inactive); in test [9], 17.1 µM (inactive); in test [11], 19.1 µM (inactive); in test [12] it was 16.5 µM (inactive). Moreover, the GI50 in test [13] was 16.1 µM (inactive).

Regarding `CC1(C)CC(C2CC(C)(C)CC(C)(C)[C@H]2O)[C@@H](O)C(C)(C)C1` (stereo not given in full), the GI50 is > 100 µM in test [14]; > 100 µM (inactive) in test [1]; > 100 µM (inactive) in [2]; > 100 µM (inactive) in test [3]; > 100 µM (inactive) in [15]; > 100 µM (inactive) in test [4]. Also, the GI50 in [16], in test [5], in [8], in test [9], in [10] and in test [12] was > 100 µM (inactive) in each case. In addition, the GI50 in [13] was > 100 µM (inactive).

Consider `O=C(O[C@H]1[C@@H]2C=CO[C@@H](OC3OC(CO)C(O)C(O)C3O)[C@@H]2[C@@]2(CO)O[C@@H]12)c1ccc(O)c(O)c1` (stereo not given in full), for which the GI50 in test [1], in test [2], in test [3], in test [4], in test [16] and in test [5] was > 100 µM (inactive) in each case. In addition, the GI50 in [6], in test [7], in test [8], in test [9], in test [11] and in [13] was > 100 µM (inactive) in each case.

In the case of `CCC(=O)OCc1ccc2oc(=O)c(C(=O)Oc3cncc(Cl)c3)cc2c1`, the GI50 in [14] is 44 µM; in test [17] it was > 100 µM (inactive); in test [18] it was 70 µM (inactive); in [1], 35.6 µM (inactive); in test [2], 30 µM (inactive); in test [3], 20.6 µM (inactive). The GI50 in [4] was > 100 µM (inactive); in [16], > 100 µM (inactive); in test [5], > 100 µM (inactive); in test [7], > 100 µM (inactive); in test [8] it was 52.1 µM (inactive); in [9] it was > 100 µM (inactive). For the same molecule, the GI50 in test [19] is 98.6 µM (inactive); in test [10], > 100 µM (inactive); in test [20], 76.4 µM (inactive); in test [11], 79.8 µM (inactive); in test [12], 80 µM (inactive); in test [13], > 100 µM (inactive).

On to `Cc1ccc(N/N=C2\C3=C(CCC(C)(C)O3)C(=O)c3ccccc32)cc1`, for which the GI50 in test [14] is 27.5 µM; in test [17] it was 56.1 µM (inactive); in test [18], 17.9 µM (inactive); in test [1], 19.7 µM (inactive); in test [2] it was 28.8 µM (inactive); in [3], 32.4 µM (inactive). Besides, the GI50 in [4] was 39.3 µM (inactive); in test [16] it was 25.5 µM (inactive); in test [5] it was 11 µM (inactive); in test [7] it was 18.2 µM (inactive); in [8], 14.9 µM (inactive); in test [9] it was 29.1 µM (inactive). Also, the GI50 in test [19] is 18.2 µM (inactive); in test [10] it was 35.2 µM (inactive); in [20], 13.7 µM (inactive); in test [11] it was 19.2 µM (inactive); in [12] it was 21.3 µM (inactive); in [13], 34.4 µM (inactive).

`CC(=O)OC1CC[C@]2(C)C3CC[C@@]4(C)C(CCC4[C@H](C)CCCC(C)C)[C@@H]3CCC2(Br)C1` (stereo not given in full): the GI50 is 15.1 µM in test [14]; 13.7 µM (inactive) in [17]; 8.83 µM (inactive) in test [18]; > 50 µM (inactive) in test [1]; 9.98 µM (inactive) in test [2]; 15.5 µM (inactive) in test [3]. The GI50 was 9.18 µM (inactive) in test [4]; > 50 µM (inactive) in [16]; 31.7 µM (inactive) in [5]; 11.7 µM (inactive) in test [7]; 21 µM (inactive) in test [8]; 11.9 µM (inactive) in test [9]. The GI50 in test [19] was 14.1 µM (inactive); in test [10], > 50 µM (inactive); in test [20], 10.5 µM (inactive); in test [11], > 50 µM (inactive); in test [12], 9.29 µM (inactive); in test [13], 10.8 µM (inactive).

As for `S=C(NCc1ccccc1)N/N=C/c1ccccn1`, the GI50 is 1.26 µM in [14]; 1.24 µM (inactive) in test [17]; 5.69 µM (inactive) in [18]; 6.31 µM (inactive) in [1]; 0.0612 µM (active) in test [2]; 0.0815 µM (active) in [3]. The GI50 in test [4] was 4.6 µM (inactive); in [16], 1.82 µM (inactive); in [5], 2.42 µM (inactive); in test [7], 3.01 µM (inactive); in test [8] it was 3.27 µM (inactive); in [9] it was 1.58 µM (inactive). Also, the GI50 was 0.161 µM (active) in [19]; 2.01 µM (inactive) in [10]; 0.834 µM (active) in test [20]; 3.91 µM (inactive) in [11]; 0.34 µM (active) in [12]; 1.15 µM (inactive) in test [13].

Take `COC(=O)[C@H](C)N1C(=O)N[C@@H](C(C)C)C1=O`: the GI50 was > 100 µM in test [14]; > 100 µM (inactive) in test [17]; > 100 µM (inactive) in test [18]; > 100 µM (inactive) in test [1]; > 100 µM (inactive) in test [2]; > 100 µM (inactive) in test [3]. In addition, the GI50 in test [4], in test [16], in test [5], in [7], in test [8] and in test [9] was > 100 µM (inactive) in each case. The GI50 in test [19] is > 100 µM (inactive); in test [10], > 100 µM (inactive); in test [20], > 100 µM (inactive); in [11] it was 82 µM (inactive); in test [12], > 100 µM (inactive); in test [13], > 100 µM (inactive).

As to `COc1ccc(C(=O)/C=C/c2ccc(OCCSCCCCCCCCCCSCCOc3ccc(/C=C/C(=O)c4ccc(OC)cc4)cc3)cc2)cc1`, the GI50 is > 100 µM in test [14]; > 100 µM (inactive) in test [17]; > 100 µM (inactive) in test [18]; > 100 µM (inactive) in test [1]; > 100 µM (inactive) in [2]; > 100 µM (inactive) in test [3]. Besides, the GI50 in [4], in test [16], in [5], in test [7], in test [8] and in [9] was > 100 µM (inactive) in each case. Further, the GI50 in test [19], in [10], in test [20], in [11], in [12] and in [13] was > 100 µM (inactive) each time.

For `Clc1ccccc1C(Nc1cnccn1)Nc1cnccn1`, the GI50 is 8.71 µM in test [14]; > 100 µM (inactive) in test [17]; 8.59 µM (inactive) in test [18]; > 100 µM (inactive) in test [1]; 23.6 µM (inactive) in test [2]; 4.12 µM (inactive) in test [3]. Moreover, the GI50 in [4], in [16], in [5], in test [7], in [8] and in [9] was > 100 µM (inactive) each time. Further, the GI50 in [19] is > 100 µM (inactive); in [10], > 100 µM (inactive); in test [20] it was > 100 µM (inactive); in test [11] it was 96.6 µM (inactive); in test [12], 98.2 µM (inactive); in [13], > 100 µM (inactive).

On to `CC(C)[C@@H]1CC[C@@H](C)C[C@H]1OC(=O)/C=C1\C(C(=O)O[C@@H]2C[C@H](C)CC[C@H]2C(C)C)[C@H]2C=C[C@@H]1O2` (stereo not given in full), for which the GI50 in [14] is 92.3 µM; in [17] it was 87.5 µM (inactive); in [18] it was 59 µM (inactive); in [1] it was 29.1 µM (inactive); in test [2], 35.8 µM (inactive); in test [3], 33.4 µM (inactive). Further, the GI50 in [4] is > 100 µM (inactive); in [16], 63.4 µM (inactive); in [5] it was 35 µM (inactive); in test [7], > 100 µM (inactive); in test [8] it was 92.5 µM (inactive); in test [9] it was > 100 µM (inactive). The GI50 was 75.2 µM (inactive) in [19]; 38.3 µM (inactive) in test [10]; 25.1 µM (inactive) in [20]; > 100 µM (inactive) in test [11]; 49.9 µM (inactive) in test [12]; 57.7 µM (inactive) in [13].

(Values after ChEMBL document CHEMBL1201862, “PubChem BioAssay data set” (2004).)
